Patent US20240374624A1, “NOVEL USE OF AT LEAST A HUMAN MILK OLIGOSACCHARIDE” (DSM IP ASSETS B.V., priority 2021, published 2024)

Test system: C. acnes (ATCC reference 11827)
Assay: Cutibacterium acnes Time-Kill Assay
Type: cell-based
Details: for Log-step reduction (16 h) / Log-step reduction (24 h): reduction compared to initial log cfu/ml of 5.38, n=3; for effect on C. acnes (reduction or growth promotion, in words): summary of the time-kill study
Description: Cutibacterium acnes Time-Kill Assay:
Seven different HMOs were screened for their potential anti-microbial activities against C. acnes (ATCC reference 11827). The action of ingredients and combinations thereof is assessed through a miniaturized method performed in liquid media in 96 deepwell plates format. The inhibition of the growth of C. acnes is compared to the same strain growth in corresponding optimal media.
The different ingredients are mixed at two different concentrations in growth medium (final volume 2 mL) in deepwell plates (n=3 for each concentration).
Analysis controls are prepared and used identically to samples: • A growth control of C. acnes in the corresponding culture medium; • A […] consisting of Phenoxyethanol prepared at 0.5% (v/v) directly in the culture medium.
Then, samples are contaminated with C. acnes, inoculum at final concentration of 3.7×10^5 CFU/mL, and incubated at 37° C.±2.5° C. during 24 h. At each defined timepoint (i.e. 30 min, 2 h, 4 h, 16 h and 24 h), a pick-up of the contaminated samples is performed (20 L) after gentle agitation.
To perform the counting, aliquots of the contaminated samples are serially diluted (decimal dilutions) in culture medium in 96-well plates with triphenyltetrazolium and incubated at 37° C.±2.5° C. during 48 h. After 48 h at the optimal growing conditions, the last dilution showing a pink color (triphenyltetrazolium) or turbidity indicates the contamination rate and allow the determination of the corresponding microbial population.
The results of the Time-Kill study are presented in the table below data are shown as log-step reduction compared to initial log cfu/ml of 5.38.

[1] = 0.10 wt.-% ingredient in growth medium
[2] = 0.5 wt.-% ingredient in growth medium

| Compound | Log-step reduction (16 h) [1] [log-step] | Log-step reduction (24 h) [1] [log-step] | Log-step reduction (16 h) [2] [log-step] | Log-step reduction (24 h) [2] [log-step] | effect on C. acnes (reduction or growth promotion, in words) |
| --- | --- | --- | --- | --- | --- |
| 2′-fucosyllactose [2′FL] | 0.5 | 0.5 | 1.5 | 1.5 | still provided a reduction of C. acnes |
| 3-fucosyllactose [3FL (Ref), reference compound] |  |  | −0.4 | −0.4 | promoted C. acnes growth |
| CC(=O)N[C@H]1[C@H](O[C@H]2[C@@H](O)[C@@H](CO)O[C@@H](O[C@H]3[C@H](O)[C@@H](O)C(O)O[C@@H]3CO)[C@@H]2O)O[C@H](CO)[C@@H](O[C@@H]2O[C@H](CO)[C@H](O)[C@H](O)[C@H]2O)[C@@H]1O (mixture of isomers) [LNnT (Ref), lacto-N-neotetraose, reference compound] | −0.4 | −0.4 | −0.5 | −0.5 | promoted C. acnes growth |
| CC(=O)N[C@H]1[C@H](O[C@H]2[C@@H](O)[C@@H](CO)O[C@@H](O[C@H]3[C@H](O)[C@@H](O)C(O)O[C@@H]3CO)[C@@H]2O)O[C@H](CO)[C@@H](O)[C@@H]1O[C@@H]1O[C@H](CO)[C@H](O)[C@H](O)[C@H]1O (stereo partly drawn) [LNT, lacto-N-tetraose] | 0.5 | 0.5 | 0.5 | 0.5 | still provided a reduction of C. acnes |
